# Results as given in US8586551B2, “18-membered macrocycles and analogs thereof” (Optimer Pharmaceuticals, Inc., priority 2005, dated 2013).
# Where two headings read alike, the source gives them in different places.
# Tested on: C. difficile clinical isolates
# Assay: MIC via agar dilution versus 110 clinical isolates of C. difficile
# Format: cell-based
smiles,measurement,setting,value
"CCc1c(Cl)c(O)c(Cl)c(O)c1C(=O)O[C@H]1[C@H](O)[C@H](OC)[C@H](OCC2=CC=CC[C@H](O)C(C)=C[C@H](CC)[C@@H](O[C@@H]3OC(C)(C)[C@@H](OC(=O)C(C)C)[C@H](O)[C@@H]3O)C(C)=CC(C)=CC[C@@H]([C@@H](C)O)OC2=O)O[C@@H]1C [R-Tiacumicin B, 3-[[[6-Deoxy-4-O-(3,5-dichloro-2-ethyl-4,6-dihydroxybenzoyl)-2-O-methyl-β-D-mannopyranosyl]oxy]-methyl]-12(R)-[[6-deoxy-5-C-methyl-4-O-(2-methyl-1-oxopropyl)-β-D-lyxo-hexopyranosyl]oxy]-11(S)-ethyl-8(S)-hydroxy-18(S)-(1(R)-hydroxyethyl)-9,13,15-trimethyloxacyclooctadeca-3,5,9,13,15-pentaene-2-one]",MIC,Clostridioides difficile,0.125 µg/mL
same,MIC,"Clostridioides difficile, isolate 61 5930, read-out: MIC",0.03 µg/mL
same,MIC,"Clostridioides difficile, isolate 65 5967, read-out: MIC",0.06 µg/mL
same,MIC,"Clostridioides difficile, isolate 68 6368, read-out: MIC",0.03 µg/mL
same,MIC,"Clostridioides difficile, isolate 77 6390, read-out: MIC",0.06 µg/mL
same,MIC,"Clostridioides difficile, isolate 82 6329, read-out: MIC",0.06 µg/mL
same,MIC,"Clostridioides difficile, isolate 83 6330, read-out: MIC",0.06 µg/mL
same,MIC,"Clostridioides difficile, isolate 85 6332, read-out: MIC",0.06 µg/mL
same,MIC,"Clostridioides difficile, isolate 86 6333, read-out: MIC",0.03 µg/mL
same,MIC,"Clostridioides difficile, isolate 96 6348, read-out: MIC",0.06 µg/mL
same,MIC,"Clostridioides difficile, isolate 103 6068, read-out: MIC",0.06 µg/mL
same,MIC,"Clostridioides difficile, isolate 104 6060, read-out: MIC",0.03 µg/mL
same,MIC,"Clostridioides difficile, isolate 105 6071, read-out: MIC",0.03 µg/mL
same,MIC,"Clostridioides difficile, isolate 106 6078, read-out: MIC",0.03 µg/mL
same,MIC,"Clostridioides difficile, isolate 107 6079, read-out: MIC",0.06 µg/mL
same,MIC,"Clostridioides difficile, isolate 111 6279, read-out: MIC",0.03 µg/mL
same,MIC,"Clostridioides difficile, isolate 112 6280, read-out: MIC",0.06 µg/mL
same,MIC,"Clostridioides difficile, isolate 113 6304, read-out: MIC",0.06 µg/mL
same,MIC,"Clostridioides difficile, isolate 114 386, read-out: MIC",0.06 µg/mL
same,MIC,"Clostridioides difficile, isolate 116 5702, read-out: MIC",0.06 µg/mL
same,MIC,"Clostridioides difficile, isolate 117 6026, read-out: MIC",0.06 µg/mL
same,MIC,"Clostridioides difficile, isolate 120 6057, read-out: MIC",0.03 µg/mL
same,MIC,"Clostridioides difficile, isolate 121 6072, read-out: MIC",0.06 µg/mL
same,MIC,"Clostridioides difficile, isolate AB2 1725, read-out: MIC",0.06 µg/mL
same,MIC,"Clostridioides difficile, isolate AC1 1546, read-out: MIC",0.06 µg/mL
same,MIC,"Clostridioides difficile, isolate AJ1 1557, read-out: MIC",0.06 µg/mL
same,MIC,"Clostridioides difficile, isolate AL1 1753, read-out: MIC",0.06 µg/mL
same,MIC,"Clostridioides difficile, isolate B1 832, read-out: MIC",0.06 µg/mL
same,MIC,"Clostridioides difficile, isolate BH1 4506, read-out: MIC",0.06 µg/mL
same,MIC,"Clostridioides difficile, isolate BM1 1453, read-out: MIC",0.06 µg/mL
same,MIC,"Clostridioides difficile, isolate BR1 1321, read-out: MIC",0.06 µg/mL
same,MIC,"Clostridioides difficile, isolate BT1 706, read-out: MIC",0.06 µg/mL
same,MIC,"Clostridioides difficile, isolate D1 1360, read-out: MIC",0.03 µg/mL
same,MIC,"Clostridioides difficile, isolate E1 816, read-out: MIC",0.06 µg/mL
same,MIC,"Clostridioides difficile, isolate J1 5971, read-out: MIC",0.06 µg/mL
same,MIC,"Clostridioides difficile, isolate J7 4224, read-out: MIC",0.03 µg/mL
same,MIC,"Clostridioides difficile, isolate J9 4478, read-out: MIC",0.06 µg/mL
same,MIC,"Clostridioides difficile, isolate O1 1861, read-out: MIC",0.06 µg/mL
same,MIC,"Clostridioides difficile, isolate Y1 5639, read-out: MIC",0.06 µg/mL
same,MIC,"Clostridioides difficile, isolate Y2 1459, read-out: MIC",0.06 µg/mL
same,MIC,"Clostridioides difficile, isolate Z1 3036, read-out: MIC",0.03 µg/mL
same,MIC,isolate 64 5940,0.125 µg/mL
same,MIC,isolate 67 6367,0.125 µg/mL
same,MIC,isolate 70 6376,0.125 µg/mL
same,MIC,isolate 71 6379,0.125 µg/mL
same,MIC,isolate 72 6380,0.125 µg/mL
same,MIC,isolate 75 6388,0.125 µg/mL
same,MIC,isolate 76 6389,0.125 µg/mL
same,MIC,isolate 80 6327,0.125 µg/mL
same,MIC,isolate 81 6328,0.125 µg/mL
same,MIC,isolate 84 6331,0.125 µg/mL
same,MIC,isolate 87 6334,0.125 µg/mL
same,MIC,isolate 88 6335,0.125 µg/mL
same,MIC,isolate 90 6338,0.125 µg/mL
same,MIC,isolate 91 6339,0.125 µg/mL
same,MIC,isolate 93 6341,0.125 µg/mL
same,MIC,isolate 95 6347,0.125 µg/mL
same,MIC,isolate 98 6350,0.125 µg/mL
